Laboratory results: ChEMBL document CHEMBL4411321, “Discovery of Potent, Selective, and Orally Bioavailable Estrogen-Related Receptor-γ Inverse Agonists To Restore the Sodium Iodide Symporter Function in Anaplastic Thyroid Cancer” (J Med Chem, 2019)
The source made the active and inactive calls. No cut-off for these calls is given here.

Columns and labels:
CYP1A2 = target: T1, CYP1A2 (Homo sapiens, UniProt P05177); assay: Inhibition of CYP1A2 in human liver microsomes assessed as reduction in phenacetin O-deethylase activity at 10 uM preincubated for 5 mins followed by NADPH addition and measured after 15 mins by LC-MS/MS analysis relative to control; format: ADME; settings: probe phenacetin (O-deethylation)
T1 sequence (P05177 whole entry): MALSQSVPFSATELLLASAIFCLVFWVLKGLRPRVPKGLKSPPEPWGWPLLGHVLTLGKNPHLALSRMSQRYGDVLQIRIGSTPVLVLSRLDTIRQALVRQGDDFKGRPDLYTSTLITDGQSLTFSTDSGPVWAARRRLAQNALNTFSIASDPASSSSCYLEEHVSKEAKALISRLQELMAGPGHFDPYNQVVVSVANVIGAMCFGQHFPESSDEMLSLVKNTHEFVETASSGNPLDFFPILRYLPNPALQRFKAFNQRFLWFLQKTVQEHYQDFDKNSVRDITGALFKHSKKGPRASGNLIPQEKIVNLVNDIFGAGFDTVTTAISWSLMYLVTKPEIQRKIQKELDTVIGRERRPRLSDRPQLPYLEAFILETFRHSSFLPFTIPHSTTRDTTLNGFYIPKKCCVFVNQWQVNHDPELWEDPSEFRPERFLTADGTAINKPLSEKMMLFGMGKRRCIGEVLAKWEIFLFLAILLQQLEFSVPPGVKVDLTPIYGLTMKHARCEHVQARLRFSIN

CYP2C9 = CYP2C9 (Homo sapiens, UniProt P11712); assay: Inhibition of CYP2C9 in human liver microsomes assessed as reduction in tolbutamide 4-hydroxylase activity at 10 uM preincubated for 5 mins followed by NADPH addition and measured after 15 mins by LC-MS/MS analysis relative to control; format: ADME; settings: probe tolbutamide (4-hydroxylation)
Chain of CYP2C9 (P11712 whole entry): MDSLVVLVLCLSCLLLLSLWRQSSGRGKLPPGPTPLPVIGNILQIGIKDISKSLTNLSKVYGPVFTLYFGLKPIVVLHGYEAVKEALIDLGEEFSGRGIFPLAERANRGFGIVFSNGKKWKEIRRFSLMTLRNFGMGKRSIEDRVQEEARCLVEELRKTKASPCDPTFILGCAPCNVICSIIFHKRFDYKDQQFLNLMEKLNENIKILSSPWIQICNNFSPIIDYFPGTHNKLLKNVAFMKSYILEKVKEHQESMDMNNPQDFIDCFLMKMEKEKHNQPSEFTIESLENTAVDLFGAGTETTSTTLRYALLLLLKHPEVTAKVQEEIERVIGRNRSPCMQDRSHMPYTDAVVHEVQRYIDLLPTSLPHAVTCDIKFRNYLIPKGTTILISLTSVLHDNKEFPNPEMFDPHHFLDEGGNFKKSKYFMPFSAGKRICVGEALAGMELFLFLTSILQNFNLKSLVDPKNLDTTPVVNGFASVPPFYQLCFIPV

CYP2C19 = CYP2C19 (Homo sapiens, UniProt P33261); assay: Inhibition of CYP2C19 in human liver microsomes assessed as reduction in S-mephenytoin 4-hydroxylase activity at 10 uM preincubated for 5 mins followed by NADPH addition and measured after 15 mins by LC-MS/MS analysis relative to control; format: ADME; settings: probe S-mephenytoin (4-hydroxylation)
Chain of CYP2C19 (P33261 whole entry): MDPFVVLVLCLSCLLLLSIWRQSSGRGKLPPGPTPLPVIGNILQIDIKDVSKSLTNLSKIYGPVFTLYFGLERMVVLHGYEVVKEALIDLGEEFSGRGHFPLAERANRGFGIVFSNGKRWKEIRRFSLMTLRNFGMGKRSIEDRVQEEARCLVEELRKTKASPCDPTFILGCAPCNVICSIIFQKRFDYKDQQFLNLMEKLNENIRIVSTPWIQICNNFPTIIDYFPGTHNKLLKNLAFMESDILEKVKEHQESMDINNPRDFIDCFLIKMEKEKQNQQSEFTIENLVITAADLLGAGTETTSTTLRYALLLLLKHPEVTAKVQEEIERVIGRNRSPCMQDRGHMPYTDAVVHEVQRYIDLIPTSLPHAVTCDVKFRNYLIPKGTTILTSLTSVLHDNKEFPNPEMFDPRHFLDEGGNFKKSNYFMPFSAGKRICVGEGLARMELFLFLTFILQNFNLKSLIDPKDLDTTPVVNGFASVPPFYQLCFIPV

CYP2D6 = CYP2D6 (Homo sapiens, UniProt P10635); assay: Inhibition of CYP2D6 in human liver microsomes assessed as reduction in dextromethorphan O-demethylase activity at 10 uM preincubated for 5 mins followed by NADPH addition and measured after 15 mins by LC-MS/MS analysis relative to control; format: ADME; settings: probe dextromethorphan (O-demethylation)
Chain of CYP2D6 (P10635 whole entry): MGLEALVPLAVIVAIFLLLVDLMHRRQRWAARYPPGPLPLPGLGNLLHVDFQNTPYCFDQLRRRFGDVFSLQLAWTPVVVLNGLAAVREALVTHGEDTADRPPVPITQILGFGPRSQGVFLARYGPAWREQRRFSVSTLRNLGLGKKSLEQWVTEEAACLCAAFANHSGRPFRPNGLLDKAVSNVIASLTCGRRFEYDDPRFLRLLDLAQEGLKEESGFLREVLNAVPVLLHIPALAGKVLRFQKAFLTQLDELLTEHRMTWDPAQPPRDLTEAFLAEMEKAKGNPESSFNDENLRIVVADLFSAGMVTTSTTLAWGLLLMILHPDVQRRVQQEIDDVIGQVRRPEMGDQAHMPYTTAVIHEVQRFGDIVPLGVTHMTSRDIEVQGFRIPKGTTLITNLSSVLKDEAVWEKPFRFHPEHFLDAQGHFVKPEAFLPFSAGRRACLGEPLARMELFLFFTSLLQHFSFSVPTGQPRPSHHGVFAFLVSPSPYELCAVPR

CYP3A4 = CYP3A4 (Homo sapiens, UniProt P08684); assay: Inhibition of CYP3A4 in human liver microsomes assessed as reduction in midazolam 1-hydroxylase activity at 10 uM preincubated for 5 mins followed by NADPH addition and measured after 15 mins by LC-MS/MS analysis relative to control; format: ADME; settings: probe midazolam (1-hydroxylation)
Chain of CYP3A4 (P08684 whole entry): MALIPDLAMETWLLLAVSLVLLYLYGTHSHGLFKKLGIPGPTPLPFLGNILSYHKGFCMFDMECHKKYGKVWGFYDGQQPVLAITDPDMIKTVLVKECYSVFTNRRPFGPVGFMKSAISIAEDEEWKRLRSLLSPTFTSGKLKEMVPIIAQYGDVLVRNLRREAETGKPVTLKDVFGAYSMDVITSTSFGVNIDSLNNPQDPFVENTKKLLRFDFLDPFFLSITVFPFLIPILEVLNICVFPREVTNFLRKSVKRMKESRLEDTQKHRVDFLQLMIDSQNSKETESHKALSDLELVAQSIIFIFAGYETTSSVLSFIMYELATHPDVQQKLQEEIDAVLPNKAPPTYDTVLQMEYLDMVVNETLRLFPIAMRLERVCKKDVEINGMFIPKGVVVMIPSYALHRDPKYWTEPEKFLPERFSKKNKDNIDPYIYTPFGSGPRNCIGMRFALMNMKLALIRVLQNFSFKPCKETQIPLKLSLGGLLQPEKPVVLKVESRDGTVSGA

[1] = Metabolic stability in human liver microsomes assessed as compound remaining at 1 uM after 30 mins in presence of NADPH regeneration system by LC-MS/MS analysis; format: ADME, Microsome; settings: read-out: Stability
[2] = Metabolic stability in dog liver microsomes assessed as compound remaining at 1 uM after 30 mins in presence of NADPH regeneration system by LC-MS/MS analysis; format: ADME, Canis lupus familiaris, Microsome; settings: read-out: Stability
[3] = Metabolic stability in rat liver microsomes assessed as compound remaining at 1 uM after 30 mins in presence of NADPH regeneration system by LC-MS/MS analysis; format: ADME, Microsome; settings: read-out: Stability
[4] = Metabolic stability in mouse liver microsomes assessed as compound remaining at 1 uM after 30 mins in presence of NADPH regeneration system by LC-MS/MS analysis; format: ADME, Microsome; settings: read-out: Stability
[5] = Effective permeability of the compound at 10 uM after 5 hrs by PAMPA; format: ADME; settings: read-out: Peff
[6] = AUC (0 to infinity) in Sprague-Dawley rat at 1 mg/kg, iv by LC-MS/MS analysis; format: ADME, organism-based; set-up: dose 1 mg/kg, time infinity, route intravenous; settings: in vivo
[7] = AUC (0 to infinity) in Sprague-Dawley rat at 9 to 10 mg/kg, po via gavage by LC-MS/MS analysis; format: ADME, organism-based; settings: in vivo
[8] = Tmax in Sprague-Dawley rat at 9 to 10 mg/kg, po via gavage by LC-MS/MS analysis; format: ADME, organism-based; settings: in vivo
[9] = target: T2, Estrogen-related receptor gamma (Homo sapiens) (UniProt P62508); assay: Inverse agonist activity at ERRgamma in human BHT101 cells assessed as restoration of sodium iodide symporter function by measuring increase in radioiodide avidity at 6 to 12 uM after 24 hrs by gamma counting analysis based [125-I]-iodide uptake assay; format: cell-based
T2 sequence (whole entry): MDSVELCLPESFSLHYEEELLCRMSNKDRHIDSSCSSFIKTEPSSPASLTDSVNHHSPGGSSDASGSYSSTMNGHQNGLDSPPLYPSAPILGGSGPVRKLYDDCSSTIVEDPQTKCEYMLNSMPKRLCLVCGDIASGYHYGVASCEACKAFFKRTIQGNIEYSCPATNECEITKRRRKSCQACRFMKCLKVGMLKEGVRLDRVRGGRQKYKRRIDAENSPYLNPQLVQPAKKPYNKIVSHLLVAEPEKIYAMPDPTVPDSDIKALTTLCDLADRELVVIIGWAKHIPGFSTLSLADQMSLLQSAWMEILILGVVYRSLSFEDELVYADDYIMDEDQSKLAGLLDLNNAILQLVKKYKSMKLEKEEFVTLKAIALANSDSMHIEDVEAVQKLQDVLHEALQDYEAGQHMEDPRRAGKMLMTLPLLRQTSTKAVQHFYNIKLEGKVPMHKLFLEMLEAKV

[10] = target: T2, Estrogen-related receptor gamma (Homo sapiens); assay: Inverse agonist activity at ERRgamma in human CAL62 cells assessed as restoration of sodium iodide symporter function by measuring increase in radioiodide avidity at 6 to 12 uM after 24 hrs by gamma counting analysis based [125-I]-iodide uptake assay; format: cell-based
[11] = target: T2, Estrogen-related receptor gamma (Homo sapiens); assay: Inverse agonist activity at ERRgamma in human BHT101 cells assessed as restoration of sodium iodide symporter function by measuring increase in radioiodide avidity at 6 to 12 uM in presence of NIS inhibitor KClO4 after 24 hrs by gamma counting analysis based [125-I]-iodide uptake assay; format: cell-based
[12] = target: T2, Estrogen-related receptor gamma (Homo sapiens); assay: Inverse agonist activity at ERRgamma in human CAL62 cells assessed as restoration of sodium iodide symporter function by measuring increase in radioiodide avidity at 6 to 12 uM in presence of NIS inhibitor KClO4 after 24 hrs by gamma counting analysis based [125-I]-iodide uptake assay; format: cell-based
[13] = target: T2, Estrogen-related receptor gamma (Homo sapiens); assay: Inverse agonist activity at ERRgamma in human CAL62 cells assessed as increase in NIS mRNA expression at 6 to 12 uM by RT-PCR analysis; format: cell-based
[14] = target: T2, Estrogen-related receptor gamma (Homo sapiens); assay: Inverse agonist activity at ERRgamma in human CAL62 cells assessed as increase in TSHR mRNA expression at 6 to 12 uM by RT-PCR analysis; format: cell-based
[15] = target: T2, Estrogen-related receptor gamma (Homo sapiens); assay: Inverse agonist activity at ERRgamma in human CAL62 cells assessed as increase in TPO mRNA expression at 6 to 12 uM by RT-PCR analysis; format: cell-based
[16] = target: T2, Estrogen-related receptor gamma (Homo sapiens); assay: Inverse agonist activity at ERRgamma in human CAL62 cells assessed as increase in TG mRNA expression at 6 to 12 uM by RT-PCR analysis; format: cell-based
[17] = target: T2, Estrogen-related receptor gamma (Homo sapiens); assay: Inverse agonist activity at ERRgamma in human BHT101 cells assessed as increase in NIS mRNA expression at 6 to 12 uM by RT-PCR analysis; format: cell-based
[18] = target: T2, Estrogen-related receptor gamma (Homo sapiens); assay: Inverse agonist activity at ERRgamma in human BHT101 cells assessed as increase in TSHR mRNA expression at 6 to 12 uM by RT-PCR analysis; format: cell-based
[19] = target: T2, Estrogen-related receptor gamma (Homo sapiens); assay: Inverse agonist activity at ERRgamma in human BHT101 cells assessed as increase in TPO mRNA expression at 6 to 12 uM by RT-PCR analysis; format: cell-based
[20] = target: T2, Estrogen-related receptor gamma (Homo sapiens); assay: Inverse agonist activity at ERRgamma in human BHT101 cells assessed as increase in TG mRNA expression at 6 to 12 uM by RT-PCR analysis; format: cell-based
CAL-62 = assay: Reduction in colony formation in human CAL62 cells at 6 uM after 24 hrs by crystal violet-based assay; format: ADME, cell-based; settings: cal-62, 24 h
BHT-101 = assay: Reduction in colony formation in human BHT101 cells at 6 uM after 24 hrs by crystal violet-based assay; format: ADME, cell-based; settings: bht-101, 24 h
[21] = Potentiation of radio-iodine avidity in human CAL62 cells xenografted mouse assessed as increase in radio-iodine accumulation in tumor at 200 mg/kg, po dosed once daily for 6 days followed by 50 uCi 124-iodine dosing and measured after 2 hrs by PET/CT imaging analysis; format: ADME, organism-based, Neoplasm; settings: in vivo
[22] = Genotoxicity in Salmonella typhimurium at 2 mM by mini Ames test; format: toxicity; settings: salmonella enterica subsp. enterica serovar typhimurium, 2000 µM
in vivo = settings: Sprague-Dawley, rat, iv, 1 mg/kg

For `CC(C)N1CCN(c2ccc(/C(=C(/CCCO)c3ccccc3)c3cccc(O)c3)cc2)CC1.Cl.Cl`, which inhibition at 0.25 h, 10 µM (CYP1A2) is on record?
Its inhibition at 0.25 h, 10 µM is 0%.

What about the inhibition at 0.25 h, 10 µM (CYP2C9) of the same compound?
Its inhibition at 0.25 h, 10 µM is 24.1%.

What about the inhibition at 0.25 h, 10 µM (CYP2C19) of the same compound?
Its inhibition at 0.25 h, 10 µM is 0%.

What about the inhibition at 0.25 h, 10 µM (CYP2D6) of the same compound?
Its inhibition at 0.25 h, 10 µM is 34%.

What about the inhibition at 0.25 h, 10 µM (CYP3A4) of the same compound?
The inhibition at 0.25 h, 10 µM was 53.3%.

And the remaining at 0.5 h, 1 µM [1]?
Its remaining at 0.5 h, 1 µM is 65.4%.

What about the remaining at 0.5 h, 1 µM [2] of the same compound?
Its remaining at 0.5 h, 1 µM is 61.2%.

What about the remaining at 0.5 h, 1 µM [3] of the same compound?
The remaining at 0.5 h, 1 µM was 54.9%.

What about the remaining at 0.5 h, 1 µM [4] of the same compound?
The remaining at 0.5 h, 1 µM was 26.9%.

And the Papp at 5 h, 10 µM [5]?
The Papp at 5 h, 10 µM was 1.29 ×10⁻⁶ cm/s.

And the AUC(0-inf) [6]?
Its AUC(0-inf) is 1 µM·h.

And the AUC(0-inf) [7]?
Its AUC(0-inf) is 4.71 µM·h.

And the Tmax [8]?
Its Tmax is 1.7 h.

And the Activity [9]?
The Activity was “Active”.

What about the Activity [10] of the same compound?
The Activity was “Active”.

What about the Activity [11] of the same compound?
Its Activity is “inactive”.

What about the Activity [12] of the same compound?
Its Activity is “inactive”.

And the Activity [13]?
The Activity was “Dose-dependent effect”.

And the Activity [14]?
Its Activity is “Dose-dependent effect”.

What about the Activity [15] of the same compound?
Its Activity is “Dose-dependent effect”.

What about the Activity [16] of the same compound?
The Activity was “Dose-dependent effect”.

And the Activity [17]?
The Activity was “Active”.

What about the Activity [18] of the same compound?
The Activity was “Active”.

What about the Activity [19] of the same compound?
The Activity was “Active”.

What about the Activity [20] of the same compound?
The Activity was “Active”.

And the Activity (CAL-62)?
The Activity was “Non-Toxic”.

What about the Activity (BHT-101) of the same compound?
The Activity was “Non-Toxic”.

And the Activity [21]?
Its Activity is “Active”.

And the Activity [22]?
The Activity was “Non-Toxic”.

What about the AUC (in vivo) of the same compound?
The AUC was 0.99 µM·h.
